Results on one compound are retold here after US11607422B2, “Uttroside B and derivatives thereof as therapeutics for hepatocellular carcinoma” (Rajiv Gandhi Centre for Biotechnology, an Autonomous …, priority 2016, dated 2023).

The structures appear in SMILES notation.

Series [1] concerns NF-κB in HepG2 cells. The series can be described thus: Electrophoretic mobility shift assay of NF-κB. It is filed as cell-based, human. The following applies: HepG2 nuclear extract, EMSA. As for the experimental part: Stocks of crude extracts and isolated compound of S. nigrum was prepared in DMSO for the in vitro studies and stored at −20° C. The DMSO concentration in all studies, including controls, was ≤0.2%. Cell viability assay was performed after 72 h of drug treatment while whole cell lysate preparation and cell cycle analysis were done after 24 h and 48 h of drug treatment. For studying NF-κB and AP-1, Uttroside B was incubated for 2 h before extraction.
Radiolabeling of oligonucleotide probes for electrophoretic mobility shift assay:HepG2 Cells were treated with Uttroside B for two hours, scraped and suspended in 150 μL of lysis buffer (10 mM HEPES(pH 7.9), 10 mM KCl, 0.1 mM EDTA, 0.1 mM EGTA, 1 mM DTT, 0.5 mMphenylmethylsulfonyl fluoride, 2 μg/mL leupeptin, 2 μg/mL aprotinin, 0.5 mg/ml benzamidine) for 30 min, after which 4.5 μl of 10% Nonidet P-40 was added. […]

Series [2] concerns normal immortalized hepatocytes (Chang Liver). The series can be described thus: MTT assay in normal immortalized hepatocytes. Type of series: cell-based. The following applies: at 1250 nM, 72 h. Here is the method:
FIG. 2A is a graph comparison of IC50 of Uttroside B in a panel of cancer cells of different origin. The cancer cell lines HeLa, A375, HepG2, MDA-MB-231, HL 60, A549 and HCT116 were treated with Uttroside B as indicated, incubated for 72 h and the cell viability was assessed by MTT assay. FIG. 2B is a graph showing dose dependent effect of Uttroside B in the liver cancer cell lines and in normal immortalized hepatocytes. The liver cancer cell lines HepG2, Hep3B, SKHEP-1, Huh-7 and normal hepatocytes (Chang liver), were treated with Uttroside B incubated for 72 h and the cell viability was assessed by MTT assay. FIG. 2C is a graph comparison of IC50 of Uttroside B with sorafenib. HepG2 cells were treated with Uttroside B as indicated, incubated for 72 h, and the cell viability was assessed by MTT assay. […] The clones developed were counted and plotted as a graph. Colony containing more than four cells was counted as one clone. […]
MTT [3-(4,5-dimethylthiazole-2-yl)-2,5-diphenyltetrazolium bromide] assay is a standard colorimetric assay, suitable for analyzing proliferation, viability, and cytotoxicity. […] After overnight incubation, cells were treated with different concentrations of organic extracts (25-250 μg/ml) of S. nigrum and the isolated compound Uttroside B (250-1250 nM) for 72 h and cytotoxicity was measured. […]

In the case of `C[C@H](CC[C@@]1(O)O[C@H]2C[C@H]3[C@@H]4CC[C@H]5C[C@@H](O[C@@H]6O[C@H](CO)[C@H](O[C@@H]7O[C@H](CO)[C@@H](O)[C@H](O[C@@H]8OC[C@@H](O)[C@H](O)[C@H]8O)[C@H]7O[C@@H]7O[C@H](CO)[C@@H](O)[C@H](O)[C@H]7O)[C@H](O)[C@H]6O)CC[C@]5(C)[C@H]4CC[C@]3(C)[C@H]2[C@@H]1C)CO[C@@H]1O[C@H](CO)[C@@H](O)[C@H](O)[C@H]1O` [Uttroside B], in series [1], the “constitutive activation of NF-κB” value is “could not produce any significant down-regulation”. In addition, the “viable normal immortalized hepatocytes” value in series [2] came to 70%.
